This is an account of results in US20090280062A1, “LONGEVITY-PROMOTING EFFECTS OF ACETIC ACID AND REISHI POLYSACCHARIDE” (priority 2008, published 2009).

Experiment [1] concerns wild-type C. elegans (N2). Nature of the experiment: Lifespan analysis of C. elegans after treatment with test substances. The settings on record: acetic acid and vitamins 50 ppm, RF3 and mushroom polysaccharide fractions 100 ppm (FIG. 1); 20° C.; versus water control. Type of experiment: in vivo. An excerpt:
Strains, bacteria, natural products and chemicals. The wild-type N2 strain of C. elegans were used in all experiments. The worms were maintained and cultured on nematode growth medium (NGM) agar plates or in liquid medium with E. coli OP50 as a food source. […] Contaminating food and worm debris were removed by sucrose floatation. In addition to OP50, two E. coli strains for RNAi were used (III-1N20 for TIR-1 RNAi and I-5M24 for DAF-16 RNAi). RF3, crude mycelium-powders of A. camphorate and H. erinaceus were prepared as described in previous papers. Each solution was diluted with deionized water to make test solutions of desired concentrations for various assays. Lifespan analysis after treatment with various substances.

In the next experiment the test system is DAF-16. Put plainly: Semi-quantitative RT-PCR of DAF-16 transcripts in C. elegans. Type of experiment: in vivo. The settings on record: day 2 after treatment; acetic acid 50 ppm, extracts 100 ppm; normalised to ACT-1. How it is done:
(§1) RNA preparation and reverse transcriptase-PCR(RT-PCR). Total RNA from batches of C. elegans were isolated from samples in the NGM medium at appropriate time intervals using an RNeasy mini kit (Qiagen). Subsequently, RNA (500 ng) from each sample was reverse-transcribed and PCR was performed using a Superscript One-step RT-PCR kit (Invitrogen). […] PCR products were run on 1.8% agarose gel and stained with 0.4 μg/ml ethidium bromide. Stained bands were visualized under UV light and photographed with a camera (Nikon […]).

In experiment [2] the test system is RAB-1 and PMK-1 (MAPK pathway). Put plainly: RT-PCR of RAB-1 and PMK-1 transcripts (MAPK pathway) in C. elegans. The settings on record: in vivo transcription after treatment; RF3 100 ppm, 2 days. As for the experimental part:
as §1

With `CC(=O)O` [Acetic acid, acetic acid], the “lifespan-extending effect on C. elegans” value in experiment [1] was “showed lifespan-extending effect”. Moreover, in the experiment on DAF-16, the DAF-16 expression result is “significant increase”. In addition, the “MAPK pathway activation (RAB-1 and PMK-1 transcription levels)” value in experiment [2] is “apparently not involved”.
